Laboratory results: patent US20090069373A1, “Quinoline Acids” (Wyeth, priority 2007, published 2009)
pIC50: −log10 of the molar value.

Key:
human LXRβ = biological target: T1, human LXRβ (Homo sapiens, UniProt P55055); assay: Ligand-binding test procedure for human LXRβ (3H T0901317 competition, flash plates); conditions: for Binding ratio a/b: IC50 (μM) LXRα binding/IC50 (μM) LXRβ binding; for pIC50: biotinylated hLXRβ, tracer 3H T0901317
T1 construct: biotin (biotinylated; biotinylation tag not described); made in house; host or cells: E. coli
T1 sequence (P55055 1-460): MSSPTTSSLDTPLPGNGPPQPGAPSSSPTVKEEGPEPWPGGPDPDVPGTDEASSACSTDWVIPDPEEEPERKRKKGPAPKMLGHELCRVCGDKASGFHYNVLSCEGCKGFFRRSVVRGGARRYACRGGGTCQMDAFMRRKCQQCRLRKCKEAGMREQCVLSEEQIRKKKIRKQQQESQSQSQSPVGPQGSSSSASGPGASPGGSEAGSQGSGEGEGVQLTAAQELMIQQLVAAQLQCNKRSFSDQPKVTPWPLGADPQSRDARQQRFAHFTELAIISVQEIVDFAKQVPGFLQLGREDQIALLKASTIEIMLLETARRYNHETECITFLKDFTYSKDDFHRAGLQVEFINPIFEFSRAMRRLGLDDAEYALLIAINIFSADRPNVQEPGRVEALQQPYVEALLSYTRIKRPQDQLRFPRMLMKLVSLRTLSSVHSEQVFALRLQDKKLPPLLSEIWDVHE
Description: Ligand-Binding Test Procedure for Human LXRβ.
Receptor source: E. coli extract from cells expressing biotinylated hLXRβ. Extract was made in a similar buffer as above, but with 50 mM TRIS.
(§1) Washed streptavidin and coated flash plates with wash buffer.
(§2) Diluted receptor extract to give Bmax ˜4000 cpm and add to the wells.
(§3) Wrapped the plates in aluminum foil and stored them at +4° C. over night.
(§4) Made a dilution series in DMSO of the test ligands.
(§5) Made a 5 nM solution of the radioactive tracer in buffer.
(§6) Mixed 250 μl diluted tracer with 5 μl of the test ligand from each concentration of the dilution series.
(§7) Washed the receptor-coated flash plates.
(§8) Added 200 μl per well of the ligand/radiolabel mixture to the receptor-coated flash plates.
(§9) Wrapped the plates in aluminum foil and incubate at +4° C. over night.
(§10) Aspirated wells, and wash the flashed plates. Sealed the plate.
(§11) Measured the remaining radioactivity in the plate.

human LXRα = biological target: T2, human LXRα (Homo sapiens, UniProt Q13133); assay: Ligand-binding test procedure for human LXRα (3H T0901317 competition, flash plates); conditions: biotinylated hLXRα, tracer 3H T0901317
T2 construct: biotin (biotinylated; biotinylation tag not described); made in house; host or cells: E. coli
T2 sequence (Q13133 1-447): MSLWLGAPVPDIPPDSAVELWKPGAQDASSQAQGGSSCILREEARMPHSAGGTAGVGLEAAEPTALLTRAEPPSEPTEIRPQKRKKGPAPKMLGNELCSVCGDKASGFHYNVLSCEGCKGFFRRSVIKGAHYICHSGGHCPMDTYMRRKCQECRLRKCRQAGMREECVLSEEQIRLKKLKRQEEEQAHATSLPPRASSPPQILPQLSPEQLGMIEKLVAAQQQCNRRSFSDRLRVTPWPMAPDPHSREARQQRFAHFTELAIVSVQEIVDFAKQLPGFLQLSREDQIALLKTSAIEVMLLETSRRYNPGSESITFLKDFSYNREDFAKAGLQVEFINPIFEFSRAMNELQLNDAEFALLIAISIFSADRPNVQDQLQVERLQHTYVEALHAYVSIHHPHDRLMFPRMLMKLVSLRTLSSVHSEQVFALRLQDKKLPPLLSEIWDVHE
Description: Ligand-Binding Test Procedure for Human LXRα.
Receptor source: E. coli extract from cells expressing biotinylated hLXRα. Extract was made in a similar buffer as above, but with 50 mM TRIS.
as §1, §2, §3, §4, §5, §6, §7, §8, §9, §10, §11

Row | Structure (SMILES) | Binding ratio a/b (human LXRβ) | pIC50 (human LXRβ) | pIC50 (human LXRα)
1 | O=C(O)Cc1cccc(NCc2cccc(-c3c(Cc4ccccc4)cnc4c(C(F)(F)F)cccc34)c2)c1 [Example 30, [3-({3-[3-benzyl-8-(trifluoromethyl)quinolin-4-yl]benzyl}amino)phenyl]acetic acid] | 8 | 8.05 | 7.14
2 | O=C(N[C@@H](Cc1c[nH]cn1)C(=O)O)c1ccc(COc2cccc(-c3c(Cc4ccccc4)cnc4c(C(F)(F)F)cccc34)c2)cc1 [Example 61, N-[4-({3-[3-benzyl-8-(trifluoromethyl)quinolin-4-yl]phenoxy}methyl)benzoyl]histidine] | 5 | 6.84 | 6.17
3 | O=C(O)C1CCN(C(=O)c2cccc(COc3cccc(-c4c(Cc5ccccc5)cnc5c(C(F)(F)F)cccc45)c3)c2)CC1 [Example 40, 1-[3-({3-[3-benzyl-8-(trifluoromethyl)quinolin-4-yl]phenoxy}methyl)benzoyl]piperidine-4-carboxylic acid] | 7 | 7.08 | 6.25
4 | Cc1ccc(C(=O)O)cc1C#Cc1cccc(-c2c(Cc3ccccc3)cnc3c(C(F)(F)F)cccc23)c1 [Example 129, 3-({3-[3-Benzyl-8-(trifluoromethyl)quinolin-4-yl]phenyl}ethynyl)-4-methylbenzoic acid] | 1 | 6.22 | 6.18
5 | O=C(O)CC1CCCc2c(OCc3cccc(-c4c(Cc5ccccc5)cnc5c(C(F)(F)F)cccc45)c3)cccc21 (centres unmarked) [Example 37, [5-({3-[3-benzyl-8-(trifluoromethyl)quinolin-4-yl]benzyl}oxy)-1,2,3,4-tetrahydronaphthalen-1-yl]acetic acid] | 7 | 7.72 | 6.88
6 | Cc1cnc2c(C(F)(F)F)cccc2c1-c1cccc(CNc2ccc(C(=O)O)c(Cl)c2)c1 [Example 73, 2-chloro-4-({3-[3-methyl-8-(trifluoromethyl)quinolin-4-yl]benzyl}amino)benzoic acid] | 3 | 6.74 | 6.21
7 | Cc1cc(C(=O)O)ccc1NCc1cccc(-c2c(Cc3ccccc3)cnc3c(C(F)(F)F)cccc23)c1 [Example 53, 4-({3-[3-benzyl-8-(trifluoromethyl)quinolin-4-yl]benzyl}amino)-3-methylbenzoic acid] | 5 | 7.02 | 6.29
8 | O=C(O)Cc1ccc2c(OCc3cccc(-c4c(Cc5ccccc5)cnc5c(C(F)(F)F)cccc45)c3)cccc2c1 [Example 69, [5-({3-[3-benzyl-8-(trifluoromethyl)quinolin-4-yl]benzyl}oxy)-2-naphthyl]acetic acid] | 4 | 7.15 | 6.56
9 | O=C(O)c1cccc2c(NCc3cncc(-c4c(Cc5ccccc5)cnc5c(C(F)(F)F)cccc45)c3)cccc12 [Example 31, 5-[({5-[3-benzyl-8-(trifluoromethyl)quinolin-4-yl]pyridin-3-yl}methyl)amino]-1-naphthoic acid] | 8 | 6.68 | 5.76
10 | O=C(O)c1cc2ccccc2cc1NCc1cccc(-c2c(Cc3ccccc3)cnc3c(C(F)(F)F)cccc23)c1 [Example 78, 3-({3-[3-benzyl-8-(trifluoromethyl)quinolin-4-yl]benzyl}amino)-2-naphthoic acid] | 3 | 6.18 | 5.70
11 | O=C(O)Cc1cccc2c(OCc3cncc(-c4ccnc5c(C(F)(F)F)cccc45)c3)cccc12 [Example 118, [5-({5-[8-(trifluoromethyl)quinolin-4-yl]pyridin-3-yl}methoxy)-1-naphthyl]acetic acid] |  | 5.43 | < 6.00
12 | O=C(O)C1CCN(C(=O)c2ccc(COc3cccc(-c4c(Cc5ccccc5)cnc5c(C(F)(F)F)cccc45)c3)cc2)CC1 [Example 60, 1-[4-({3-[3-benzyl-8-(trifluoromethyl)quinolin-4-yl]phenoxy}methyl)benzoyl]piperidine-4-carboxylic acid] | 5 | 7.42 | 6.75
13 | O=C(O)c1ccc(NCc2cccc(-c3c(Cc4ccccc4)cnc4c(C(F)(F)F)cccc34)c2)cc1Cl [Example 87, 4-({3-[3-benzyl-8-(trifluoromethyl)quinolin-4-yl]benzyl}amino)-2-chlorobenzoic acid] | 3 | 7.55 | 7.14
14 | Cc1ccc(CC(=O)O)c(NCc2cccc(-c3c(Cc4ccccc4)cnc4c(C(F)(F)F)cccc34)c2)c1C [Example 35, [2-({3-[3-benzyl-8-(trifluoromethyl)quinolin-4-yl]benzyl}amino)-3,4-dimethylphenyl]acetic acid] | 7 | 6.88 | 6.02
15 | Cn1c(C(=O)O)cc2cc(NCc3cccc(-c4c(Cc5ccccc5)cnc5c(C(F)(F)F)cccc45)c3)ccc21 [Example 63, 5-({3-[3-benzyl-8-(trifluoromethyl)quinolin-4-yl]benzyl}amino)-1-methyl-1H-indole-2-carboxylic acid] | 5 | 6.48 | 5.82
16 | O=C(O)c1ccc(Cl)cc1NCc1cccc(-c2c(Cc3ccccc3)cnc3c(C(F)(F)F)cccc23)c1 [Example 91, 2-({3-[3-benzyl-8-(trifluoromethyl)quinolin-4-yl]benzyl}amino)-4-chlorobenzoic acid] | 2 | 6.32 | 5.97
17 | O=C(O)c1cc(F)ccc1OCc1cccc(-c2c(Cc3ccccc3)cnc3c(C(F)(F)F)cccc23)c1 [Example 104, 2-({3-[3-benzyl-8-(trifluoromethyl)quinolin-4-yl]benzyl}oxy)-5-fluorobenzoic acid] | 1 | 5.67 | 5.49
18 | Cc1cc(C(=O)O)c(C)cc1NCc1cccc(-c2c(C)cnc3c(C(F)(F)F)cccc23)c1 [Example 25, 2,5-dimethyl-4-({3-[3-methyl-8-(trifluoromethyl)quinolin-4-yl]benzyl}amino)benzoic acid] | 10 | 6.98 | 5.97
19 | Cc1cnc2c(C(F)(F)F)cccc2c1-c1cccc(CNc2cccc(F)c2C(=O)O)c1 [Example 115, 2-fluoro-6-({3-[3-methyl-8-(trifluoromethyl)quinolin-4-yl]benzyl}amino)benzoic acid] | 1 | 4.99 | 4.97
20 | O=C(O)c1ccc(OCc2cccc(-c3c(Cc4ccccc4)cnc4c(C(F)(F)F)cccc34)c2)c(F)c1 [Example 84, 4-({3-[3-benzyl-8-(trifluoromethyl)quinolin-4-yl]benzyl}oxy)-3-fluorobenzoic acid] | 3 | 6.50 | 6.06
21 | O=C(O)Cc1ccc(NCc2cccc(-c3c(Cc4ccccc4)cnc4c(C(F)(F)F)cccc34)c2)cc1Cl [Example 50, [4-({3-[3-benzyl-8-(trifluoromethyl)quinolin-4-yl]benzyl}amino)-2-chlorophenyl]acetic acid] | 6 | 8.40 | 7.70
22 | O=C(O)c1cc2ccccc2cc1OCc1cccc(-c2c(Cc3ccccc3)cnc3c(C(F)(F)F)cccc23)c1 [Example 109, 3-({3-[3-benzyl-8-(trifluoromethyl)quinolin-4-yl]benzyl}oxy)-2-naphthoic acid] | 1 | 5.56 | 5.44
23 | O=C(O)c1ccc(COc2cccc(-c3c(Cc4ccccc4)cnc4c(C(F)(F)F)cccc34)c2)cc1 [Example 100, 4-({3-[3-benzyl-8-(trifluoromethyl)quinolin-4-yl]phenoxy}methyl)benzoic acid] | 2 | 7.28 | 6.99
24 | O=C(O)c1ccc(Cn2ccc3c(-c4c(Cc5ccccc5)cnc5c(C(F)(F)F)cccc45)cccc32)cc1 [Example 127, 4-({4-[3-Benzyl-8-(trifluoromethyl)quinolin-4-yl]-1H-indol-1-yl}methyl)benzoic acid] | 1 | 5.61 | 5.67
